Experimental data from paper PMC10197776 (Research Square, 2023).

How the values were obtained:
[1] = Intrinsic clearance in human S9 fractions; assay type: in vitro ADME
SARS-CoV-2 3CL^pro = SARS-CoV-2 3CL^pro (Severe acute respiratory syndrome coronavirus 2, UniProt P0DTD1); assay: biochemical; assay type: biochemical; details: for IC50: SARS-CoV-2 3CLpro
[2] = Intrinsic clearance in human microsomes; assay type: in vitro ADME
SARS-CoV2 = tested on: SARS-CoV2; parameters: method as in PMID 33786375, PMID 34161756; details: SARS-CoV2 plaque reduction assay; read-out: antiviral EC50; cited from earlier work
SARS-CoV-2 = tested on: SARS-CoV-2; parameters: method as in PMID 35352927; details: TMPRSS2 VeroE6 model of SARS-CoV-2 infection; read-out: EC50 (antiviral); cited from earlier work

SMILES: O=C(Cc1cccnc1)N(Cc1cccc(Cl)c1)c1ccc(-c2cn[nH]c2)cc1 [compound 7]
- reduction in intrinsic clearance metabolism versus 6 [1]: two-fold reduction
- IC50 (SARS-CoV-2 3CL^pro): 1270 nM
- LE (ligand efficiency) (SARS-CoV-2 3CL^pro; from 3CLpro IC50): 0.27
- reduction in intrinsic clearance metabolism versus 6 [2]: two-fold reduction

SMILES: N#Cc1ccccc1-c1cc(-c2cc(Cl)cc(OCC3CC3)c2)c(=O)n(-c2cccnc2)c1 [compound 3]
- EC50 (SARS-CoV2): 980 nM

SMILES: O=C(Cc1cncc2ccccc12)N(Cc1cc(F)cc(Cl)c1)c1ccc(-c2c[nH]cn2)cc1 [compound 27]
- fold improvement in IC50 compared to monocyclic pyridine 19 (SARS-CoV-2 3CL^pro; IC50 ratio vs 19): > 6 fold
- IC50 (SARS-CoV-2 3CL^pro): 26 nM
- LipE (SARS-CoV-2 3CL^pro; from 3CLpro IC50 and calculated properties): 2.24

SMILES: Cn1cnc(Cn2c(=O)[nH]/c(=N\c3cc4cn(C)nc4cc3Cl)n(Cc3cc(F)c(F)cc3F)c2=O)n1 [compound 2, Ensitrelvir]
- EC50 (SARS-CoV-2): 370 nM
